The values that follow come from paper PMC4177084 (Journal of Thyroid Research, 2014).

As usually defined, the IC50 is the concentration at which inhibition is half-maximal. A low value points to greater potency.

One data set relates to RET (C634W) and ERK1/2. The data set can be described thus: Western blot of RET phosphorylation in TT cells. Conditions: cultured TT cells, 1 h treatment. For orientation: Immunoblotting shows a protein as a band on a membrane.
A further data set deals with HTC/C3 cells. The data set can be described thus: Antiproliferation assay (WST-8). It counts as cell-based. Conditions: Homo sapiens, 72 h; HTC/C3 (ATC), antiproliferative, 3 days.
The test system of the next data set is VEGFR, FGFR, KIT, PDGFR. In words: Cell free kinase inhibition assay, summary for RTKs. In kind it is biochemical. Conditions: PDGFR (Supplementary Table S1). The procedure: […]. Briefly, each test compound was mixed with enzyme, substrate, ATP, and Mg under appropriate buffer conditions for the ELISA or MSA. […] IC50 values (the half maximal inhibitory concentration) were calculated from concentrations versus % inhibition curves.

The target in another data set is T1, LCK (Homo sapiens, UniProt P06239).
T1 construct: purchased Carna Biosciences, Inc. (Kobe, Japan)
The data set can be described thus: Cell free kinase inhibition assay. It counts as biochemical.

A further data set concerns the target T2, FLT1/VEGFR1 (Homo sapiens, UniProt P17948).
T2 construct: purchased Carna Biosciences, Inc. (Kobe, Japan)
In words: Cell free kinase inhibition assay. In kind it is biochemical.

Data set [1] in a line: Macroscopic changes and body weight during treatment of xenograft-bearing mice. It counts as in vivo. The note with it: nude mice bearing xenografts, during daily oral treatment. The procedure: Tumor cells were cultured in appropriate culture mediums. Cells were harvested with 0.05% or 0.25% (w/v) trypsin/EDTA and suspended with 50% (v/v) BD Matrigel (BD Biosciences, San Jose, CA) in the mixture of culture mediums at a density of 5–10 × 10^7 cells/mL. Then, 0.1-0.2 mL of the cell suspension was inoculated subcutaneously into the right flank region of each mouse. […] The tumor size was measured in two dimensions by using a caliper, and the volume was calculated by using the formula: tumor volume (mm^3) = 1/2 length (mm) × [width (mm)]^2. The change in tumor volume in the treated group relative to that in the control group was calculated according to the following formula: ΔT/C = (ΔT/ΔC) × 100%, where ΔT and ΔC are the change in tumor volume (i.e., growth) for the treated and vehicle control group, respectively. The percentage of tumor growth inhibition (%TGI) was calculated from the formula: [(1 − ΔT/ΔC) × 100].

A further data set deals with T3, HER2 (Homo sapiens, UniProt P04626).
T3 construct: purchased Carna Biosciences, Inc. (Kobe, Japan)
T3 sequence (P04626 23-1255): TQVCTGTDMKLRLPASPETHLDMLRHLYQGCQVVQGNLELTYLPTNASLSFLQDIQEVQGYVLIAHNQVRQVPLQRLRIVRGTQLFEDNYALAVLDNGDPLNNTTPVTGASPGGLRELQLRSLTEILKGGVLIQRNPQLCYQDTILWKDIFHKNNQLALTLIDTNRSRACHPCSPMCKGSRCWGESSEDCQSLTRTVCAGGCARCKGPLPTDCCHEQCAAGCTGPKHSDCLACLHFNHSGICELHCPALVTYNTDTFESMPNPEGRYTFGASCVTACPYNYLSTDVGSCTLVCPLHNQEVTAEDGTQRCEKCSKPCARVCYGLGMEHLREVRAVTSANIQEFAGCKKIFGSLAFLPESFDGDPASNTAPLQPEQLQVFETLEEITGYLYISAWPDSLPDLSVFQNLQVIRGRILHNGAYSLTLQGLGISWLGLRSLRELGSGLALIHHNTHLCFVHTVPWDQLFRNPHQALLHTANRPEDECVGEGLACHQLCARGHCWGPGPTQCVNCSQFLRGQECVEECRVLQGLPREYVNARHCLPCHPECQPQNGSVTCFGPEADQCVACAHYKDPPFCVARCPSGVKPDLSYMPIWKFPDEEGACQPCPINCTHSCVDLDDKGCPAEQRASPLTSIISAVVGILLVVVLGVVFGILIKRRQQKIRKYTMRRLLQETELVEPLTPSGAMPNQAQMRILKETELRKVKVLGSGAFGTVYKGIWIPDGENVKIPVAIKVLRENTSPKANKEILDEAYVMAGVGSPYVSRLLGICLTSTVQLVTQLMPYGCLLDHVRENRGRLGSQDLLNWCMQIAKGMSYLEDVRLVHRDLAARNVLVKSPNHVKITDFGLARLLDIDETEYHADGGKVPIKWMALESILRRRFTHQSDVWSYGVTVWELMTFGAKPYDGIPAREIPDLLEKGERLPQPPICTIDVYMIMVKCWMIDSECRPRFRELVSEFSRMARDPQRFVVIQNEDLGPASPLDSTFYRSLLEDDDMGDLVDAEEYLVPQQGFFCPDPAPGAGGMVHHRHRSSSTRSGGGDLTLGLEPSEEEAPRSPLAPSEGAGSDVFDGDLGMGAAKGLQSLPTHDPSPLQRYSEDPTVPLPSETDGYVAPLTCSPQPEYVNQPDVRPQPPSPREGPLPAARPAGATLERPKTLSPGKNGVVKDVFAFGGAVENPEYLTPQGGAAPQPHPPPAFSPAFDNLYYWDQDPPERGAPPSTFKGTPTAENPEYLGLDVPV
In words: Cell free kinase inhibition assay. It counts as biochemical.

The target in another data set is T4, FGFR4 (Homo sapiens, UniProt P22455).
T4 construct: purchased Carna Biosciences, Inc. (Kobe, Japan)
In words: Cell free kinase inhibition assay. In kind it is biochemical.

Another data set has as its target T5, SGK3 (Homo sapiens, UniProt Q96BR1).
T5 construct: purchased Carna Biosciences, Inc. (Kobe, Japan)
The data set can be described thus: Cell free kinase inhibition assay. In kind it is biochemical.

A further data set addresses T6, INSR (Homo sapiens, UniProt P06213).
T6 construct: purchased Carna Biosciences, Inc. (Kobe, Japan)
In words: Cell free kinase inhibition assay. It counts as biochemical.

Data set [2] concerns tumor microvessels in TT xenografts. In words: Microvessel density (CD31 immunohistochemistry) in xenografts. In kind it is in vivo, nude mice. Conditions: 10 or 100 mg/kg. The text has this: (§1) Tumor tissues were resected from nude mice, embedded in Optimal Cutting Temperature (OCT) compound (Sakura Finetek Japan, Tokyo, Japan), frozen in dry ice-acetone, and then sectioned (8 μm), or they were embedded in paraffin, fixed overnight in immunohistochemical (IHC) Zinc Fixative (BD Biosciences), and then sectioned (6 μm). Tumor microvessels were stained by the indirect immunoperoxidase method with a rat anti-mouse CD31 monoclonal antibody (clone MEC13.3, BD Biosciences) and then visualized by using Vectastain ABC (Dako, Tokyo, Japan). Pericyte was stained by the indirect alkaline phosphatase method with an anti-α smooth muscle actin (SMA) antibody conjugated alkaline phosphatase (A 5691, Sigma-Aldrich) and visualized by using Simple Stain AP(R) (Nichirei Biosciences Inc, Tokyo, Japan). Adjacent sections were stained with Hematoxylin-Eosin. Microvessel density (MVD) was determined as described previously. Each section was scanned by using a microscope (VANOX AHBS3, Olympus, Tokyo, Japan) at low magnification to identify 5 areas with the highest densities of CD31-stained microvessels. The microvessels in the selected areas were then counted at 400x magnification. MVD was recorded as the number of microvessels per mm^2. In the DTC xenografts, the percentage of pericyte-covered microvessels was analyzed. Pericyte-covered vessels were identified by examining the colocalization of CD31- (endothelial cells-) positive vessels and αSMA- (pericytes-) positive cells. The number of pericyte-covered vessels was counted in the selected area and then compared with the total number of CD31-stained microvessels in the same area. The percentage of pericyte-covered microvessels was calculated as the number of pericyte-covered microvessels/total number of microvessels × 100 in the selected area. The MVD in the ATC xenograft models was determined by using the digital pathology system ScanScope XT (Aperio, Vista, CA). Briefly, CD31-stained whole tissue slices were scanned on the ScanScope system (Aperio) to generate high-resolution digital slides. By using a digital slide viewer, Aperio ImageScope (v10.0.36.1805, Aperio), 5 regions of interest (ROIs: each 500 μm square) were manually selected as areas with the highest densities of CD31-stained microvessels in each tumor slice. The number of microvessels in each ROI was measured by using Microvessel Analysis Algorithm v1.0 (Aperio), which automatically detects and quantifies microvessels on slides stained with endothelial markers. MVD was expressed as the number of microvessels per mm^2. […] The percentage of microvessel inhibition (%MVI) was calculated from the microvessel density (MVD) according to the following formula: [(1 − MVD of tumor in each compound-treated animal/Mean MVD of tumors in the vehicle control-treated group) × 100].

The subject of data set [3] is tumor microvessels in 5 DTC xenografts. Described as above. In kind it is in vivo, nude mice.
Excerpt: as §1

The test system of data set [4] is tumor microvessels in 5 ATC xenografts. The data set is described as above. In kind it is in vivo, nude mice. Conditions: all 5 ATC xenograft models, 10 and 100 mg/kg.
Excerpt: as §1

The target of a further data set is T7, CHK1 (Homo sapiens, UniProt O14757).
T7 construct: purchased Carna Biosciences, Inc. (Kobe, Japan)
The data set can be described thus: Cell free kinase inhibition assay. In kind it is biochemical.

For the next data set, the target named is T8, IKKb (Homo sapiens, UniProt O14920).
T8 construct: purchased Carna Biosciences, Inc. (Kobe, Japan)
In words: Cell free kinase inhibition assay. In kind it is biochemical.

The test system of a further data set is TCO-1 cells. In words: Antiproliferation assay (WST-8). The note with it: Homo sapiens, 72 h; TCO-1 (ATC), antiproliferative, 3 days. It counts as cell-based. Background: Tetrazolium assays rely on reduction of a dye to a coloured formazan, in cell work by metabolically active cells.
A further data set concerns the target T9, JAK2 (Homo sapiens, UniProt O60674).
T9 construct: purchased Carna Biosciences, Inc. (Kobe, Japan)
In words: Cell free kinase inhibition assay. It counts as biochemical.

In the next data set the target is T10, FGFR3(K650E) (Homo sapiens, UniProt P22607, K650E).
T10 construct: purchased Carna Biosciences, Inc. (Kobe, Japan)
T10 sequence (P22607 23-806 K650E): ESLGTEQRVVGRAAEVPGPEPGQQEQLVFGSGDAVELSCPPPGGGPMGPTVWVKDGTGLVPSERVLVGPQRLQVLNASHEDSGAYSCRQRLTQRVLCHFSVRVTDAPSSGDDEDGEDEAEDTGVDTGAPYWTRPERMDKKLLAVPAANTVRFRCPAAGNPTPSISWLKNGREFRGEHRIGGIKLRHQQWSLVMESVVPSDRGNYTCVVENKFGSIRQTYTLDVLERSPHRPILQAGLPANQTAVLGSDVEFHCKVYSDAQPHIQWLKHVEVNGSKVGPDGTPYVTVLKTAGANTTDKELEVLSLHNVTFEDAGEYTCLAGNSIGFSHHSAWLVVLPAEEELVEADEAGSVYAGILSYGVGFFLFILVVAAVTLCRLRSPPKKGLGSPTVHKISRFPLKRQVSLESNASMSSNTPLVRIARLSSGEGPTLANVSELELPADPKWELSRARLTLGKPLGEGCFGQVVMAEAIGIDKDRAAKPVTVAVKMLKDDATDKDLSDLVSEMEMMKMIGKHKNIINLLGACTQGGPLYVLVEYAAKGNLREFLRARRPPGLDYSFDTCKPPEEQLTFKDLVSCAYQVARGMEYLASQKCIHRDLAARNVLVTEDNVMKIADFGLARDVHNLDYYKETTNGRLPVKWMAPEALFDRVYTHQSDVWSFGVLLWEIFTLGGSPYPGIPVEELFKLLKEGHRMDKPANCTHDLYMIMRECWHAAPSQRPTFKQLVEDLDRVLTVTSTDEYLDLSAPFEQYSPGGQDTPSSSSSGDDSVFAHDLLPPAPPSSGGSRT
The data set can be described thus: Cell free kinase inhibition assay. In kind it is biochemical.

The target of another data set is T11, PIM1 (Homo sapiens, UniProt P11309).
T11 construct: purchased Carna Biosciences, Inc. (Kobe, Japan)
The data set can be described thus: Cell free kinase inhibition assay. It counts as biochemical.

Another data set has as its target T12, IRAK4 (Homo sapiens, UniProt Q9NWZ3).
T12 construct: purchased Carna Biosciences, Inc. (Kobe, Japan)
In words: Cell free kinase inhibition assay. In kind it is biochemical.

Molecules are shown by their SMILES. Bounds are passed on as bounds.

T9 sequence (O60674 whole entry): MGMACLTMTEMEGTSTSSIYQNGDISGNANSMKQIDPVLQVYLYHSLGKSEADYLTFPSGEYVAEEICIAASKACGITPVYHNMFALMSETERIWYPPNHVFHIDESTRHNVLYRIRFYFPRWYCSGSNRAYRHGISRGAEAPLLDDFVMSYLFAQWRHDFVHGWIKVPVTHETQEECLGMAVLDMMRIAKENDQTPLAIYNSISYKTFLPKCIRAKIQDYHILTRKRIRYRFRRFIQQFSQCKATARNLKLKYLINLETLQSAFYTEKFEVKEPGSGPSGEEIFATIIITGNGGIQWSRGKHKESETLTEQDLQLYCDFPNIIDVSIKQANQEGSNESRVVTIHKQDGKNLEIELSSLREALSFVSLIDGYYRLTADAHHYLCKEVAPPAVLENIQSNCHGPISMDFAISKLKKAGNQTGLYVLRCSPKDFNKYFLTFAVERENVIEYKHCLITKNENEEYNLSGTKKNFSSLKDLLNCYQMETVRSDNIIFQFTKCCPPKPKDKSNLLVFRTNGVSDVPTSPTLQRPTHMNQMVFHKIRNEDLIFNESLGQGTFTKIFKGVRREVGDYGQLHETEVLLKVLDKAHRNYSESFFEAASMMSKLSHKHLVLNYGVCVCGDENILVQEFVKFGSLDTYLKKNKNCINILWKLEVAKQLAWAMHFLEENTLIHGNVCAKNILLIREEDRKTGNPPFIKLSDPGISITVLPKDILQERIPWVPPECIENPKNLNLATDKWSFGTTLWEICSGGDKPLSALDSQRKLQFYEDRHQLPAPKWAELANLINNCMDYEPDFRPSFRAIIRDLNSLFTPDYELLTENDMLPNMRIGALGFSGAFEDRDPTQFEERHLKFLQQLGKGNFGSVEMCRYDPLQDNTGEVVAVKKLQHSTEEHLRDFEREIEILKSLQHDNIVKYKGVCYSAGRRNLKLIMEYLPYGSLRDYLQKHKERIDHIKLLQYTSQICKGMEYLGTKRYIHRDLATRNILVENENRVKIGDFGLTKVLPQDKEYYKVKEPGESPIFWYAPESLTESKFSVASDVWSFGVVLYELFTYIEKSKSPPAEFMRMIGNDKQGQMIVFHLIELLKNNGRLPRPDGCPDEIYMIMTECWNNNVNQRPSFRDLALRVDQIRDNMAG
T2 sequence (P17948 27-1338): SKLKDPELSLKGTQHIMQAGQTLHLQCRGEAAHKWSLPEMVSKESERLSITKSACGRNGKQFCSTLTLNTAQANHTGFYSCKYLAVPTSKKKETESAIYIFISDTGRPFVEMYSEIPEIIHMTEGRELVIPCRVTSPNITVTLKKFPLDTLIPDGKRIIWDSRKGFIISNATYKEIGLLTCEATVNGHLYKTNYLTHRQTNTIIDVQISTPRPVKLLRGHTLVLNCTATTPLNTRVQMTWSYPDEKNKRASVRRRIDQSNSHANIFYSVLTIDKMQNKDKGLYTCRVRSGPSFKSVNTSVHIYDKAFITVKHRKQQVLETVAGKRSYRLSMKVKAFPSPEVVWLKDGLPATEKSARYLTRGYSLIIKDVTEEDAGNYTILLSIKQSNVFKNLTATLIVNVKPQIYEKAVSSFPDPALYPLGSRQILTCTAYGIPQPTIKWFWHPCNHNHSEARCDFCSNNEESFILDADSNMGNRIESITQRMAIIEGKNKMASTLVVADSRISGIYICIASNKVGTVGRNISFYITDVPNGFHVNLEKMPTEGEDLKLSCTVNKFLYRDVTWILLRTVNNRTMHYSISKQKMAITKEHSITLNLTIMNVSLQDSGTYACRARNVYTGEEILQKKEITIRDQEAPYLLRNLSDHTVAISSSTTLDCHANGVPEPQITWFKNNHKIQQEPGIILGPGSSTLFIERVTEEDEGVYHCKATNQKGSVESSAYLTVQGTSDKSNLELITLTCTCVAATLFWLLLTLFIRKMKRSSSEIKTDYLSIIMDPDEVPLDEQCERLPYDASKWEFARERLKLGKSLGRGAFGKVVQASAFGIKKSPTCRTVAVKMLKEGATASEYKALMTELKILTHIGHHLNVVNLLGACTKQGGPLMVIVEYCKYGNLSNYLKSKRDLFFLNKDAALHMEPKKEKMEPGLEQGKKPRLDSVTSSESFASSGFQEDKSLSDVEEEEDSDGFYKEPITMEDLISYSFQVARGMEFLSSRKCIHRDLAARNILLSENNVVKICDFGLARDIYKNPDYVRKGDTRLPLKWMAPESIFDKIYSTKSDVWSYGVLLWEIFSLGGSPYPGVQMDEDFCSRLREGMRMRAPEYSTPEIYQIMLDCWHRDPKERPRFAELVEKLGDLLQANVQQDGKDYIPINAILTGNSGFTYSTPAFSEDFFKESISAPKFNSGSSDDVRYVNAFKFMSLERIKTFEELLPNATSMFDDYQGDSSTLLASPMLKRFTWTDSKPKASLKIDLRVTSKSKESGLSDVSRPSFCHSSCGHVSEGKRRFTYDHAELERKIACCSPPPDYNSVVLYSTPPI
T12 sequence (Q9NWZ3 whole entry): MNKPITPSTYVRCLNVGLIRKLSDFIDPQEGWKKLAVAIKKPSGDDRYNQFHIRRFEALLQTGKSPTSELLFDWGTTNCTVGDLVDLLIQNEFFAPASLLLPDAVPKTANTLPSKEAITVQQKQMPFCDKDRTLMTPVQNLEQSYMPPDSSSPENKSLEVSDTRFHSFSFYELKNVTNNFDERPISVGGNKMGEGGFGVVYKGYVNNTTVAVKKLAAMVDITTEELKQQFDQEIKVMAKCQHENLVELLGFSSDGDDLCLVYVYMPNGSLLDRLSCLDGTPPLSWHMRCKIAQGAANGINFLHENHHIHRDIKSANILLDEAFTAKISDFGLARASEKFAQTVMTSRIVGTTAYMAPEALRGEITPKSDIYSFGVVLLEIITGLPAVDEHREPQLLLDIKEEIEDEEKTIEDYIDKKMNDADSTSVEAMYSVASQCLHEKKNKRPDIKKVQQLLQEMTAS

With `COc1cc2nccc(Oc3ccc(NC(=O)NC4CC4)c(Cl)c3)c2cc1C(N)=O` [Lenvatinib, Lenvatinib mesilate], in the data set on RET (C634W) and ERK1/2, the “phosphorylation of RET and of ERK1/2” value was “inhibited”. The IC50 in the data set with HTC/C3 cells is 28 µM; with VEGFR, FGFR, KIT, PDGFR, < 0.1 µM; against LCK it was 0.13 µM; on FLT1/VEGFR1, 0.0047 µM; on HER2 it was > 10 µM; against FGFR4, 0.043 µM. Besides, the IC50 against SGK3 was > 10 µM; on INSR, > 10 µM; against CHK1 it was > 10 µM; against IKKb, > 10 µM; in the data set on TCO-1 cells it was 28 µM; at JAK2 it was > 10 µM. Further, the IC50 is 0.11 µM on FGFR3(K650E), > 10 µM on PIM1 and > 10 µM at IRAK4. For the same molecule, in data set [1], the “macroscopic changes or loss of body weight” value is given as “no macroscopic changes or loss of body weight were observed”. In addition, the MVD entry in data set [2] is listed as “did not decrease the MVDs”; in [3] (10 mg/kg), “significantly decreased in 4 of the 5 DTC xenografts”; in data set [3] (100 mg/kg, all of the 5) it was “significantly decreased”; in data set [4], “decreased significantly”.
